Key:
IL23-p19 = test: Compound screening using DC cells: LPS-induced IL-23 (p19/p40) ELISA in IFNγ-primed dendritic cells differentiated from human PBMC; format: cell-based; details: Dendritic cell, human PBMC-derived dendritic cells, LPS 1 μg/ml, 18 hours, 10 pt
Description: Compound Screening Using DC Cells
Human PBMC cells (400 million) obtained from the vendor were transferred into a T-175 flask containing 15 ml RPMI media (10% FBS) and incubate for 2 hours at 37° C. After 2 hours, the media including floating cells was aspirated out carefully and 12 ml of fresh RPMI media (10% FBS) containing GMCSF (100 ng/ml) and IL4 (20 ng/ml) was added, and the flask was kept in a 37° C. incubator for 7 days.
After 3 days, fresh GMCSF (100 ng/ml) and IL4 (20 ng/ml) were added to the flask and the incubation continued. After 7 days, the fully differentiated cells were harvested by spinning down (1200 rpm/5 min) and aspirating the media. The cells were suspended in fresh RPMI media (10% FBS) containing 50 ng/ml IFNγ (1000 U/ml) and then plated (50K/well in 100 μl) onto a white clear bottom 96 well plate and left in a 37° C. incubator for 24 hours.
After 24 hours incubation, 100 μl of RPMI media was added containing 2× concentrated test compound per well to the above cell-culture media (final concentration becomes 1×) and the plates were pre-incubated for 1 hour at 37° C. before stimulating with LPS.
After 1 hour compound pre-incubation, 10 μl per well of 20× concentrated LPS solution in RPMI media was added to give a final concentration of 1 μg/ml. The mixture was shaken and incubated the plates at 37° C. for an additional 18 hours.
155 μl of the supernatant was harvested from each well carefully (without the tip touching the bottom of the well) and to the remaining 50 μl/well of the cell culture plate was added 50 μl of Cell Titer Glo reagent. The mixture was incubated for 1-2 minutes on a shaker and the plate was read for luminescence intensity to determine the compound cytotoxicity. The cell culture supernatant collected above was used to carry out IL23 ELISA (65 μl—Supernatant) and IL10 ELISA (90 μl—Supernatant) as described below.
Human IL-23 (p19/p40) ELISA Protocol (e-Biosciences)
To 10.5 ml PBS add 50 μl of anti-IL23 (p19) was added capture antibody (2.5 μg/ml). The mixture was mixed well and 100 μl of the coating solution was added to each well of the 96 well white plates from Pierce. The wells were covered and incubated overnight at 4° C.
The anti-IL23 (p19)-antibody-coated plates were washed 2× using TBST (use plate washer) and blocked using 200 μl of 0.5% Casein for 1.5-2 hours at room temperature with shaking.
The plates were washed 2× using TBST and the supernatant was transferred (65 μl/well) to the above pre-blocked/IL23(p19)-antibody-coated 96 well plate, and incubated at room temperature for 1.5 hours with shaking.
The plates were washed 4× using TBST (plate washer) and 100 μl/well detection antibody solution prepared from 2 μl of biotin labeled anti-IL-12 (p40/p70) antibody in 11 ml 1% BSA/PBS solution (I-5000 dilution) was added. The plates were incubated for 1 hour with shaking at Room temperature.
Again, the plates were washed 4× with TBST and 100 μl of HRP labeled Streptavidin (R&D Systems) solution (10 μl/10 ml 1% BSA solution) was added, and the plates were incubated at room temperature for another 45 minutes with shaking.
After 45 minutes, the plates were washed with TBST 4× and 100 ul/well Super Signal ELISA Pico Chemiluminescent Substrate from Pierce (3.5 ml A+3.5 ml B+3.5 ml MQ water) was added. The plates were shaken for 1-2 minutes then read on a plate reader.

IL23p19 = test: LPS Induced IL23p19 in THP-1 Cells (with IFNγ Primed) Assay; format: cell-based; details: Homo sapiens, IFNγ primed (50 ng/mL), LPS 1 ug/mL, 18 hours, 10 pt, read-out: IL23-p19 ELISA, THP1-IFNy, LPS, 10 pt EC50
From the text: LPS Induced IL23p19 in THP-1 Cells (with IFNγ Primed) Assay
THP-1 Cells (ATCC, Cat # TIB-202), Dimethyl Sulfoxide (DMSO) (Sigma-Aldrich, Cat # D2650), RPMI 1640 (Cellgro, Cat #10-040-CM), Fetal Bovine Serum (Sigma, Cat # F4135), Albumin From Bovine Serum (BSA) (Sigma-Aldrich, Cat # A7906), LPS (Serotype K-235, Sigma, Product Number L 2143), IFNγ (Peprotech, Cat #300-02)
Capture antibody: Human IL-23p19 ELISA (e-Bioscience, Cat. #14-7238-85),
Detection antibody: Primary Mouse Biotinylated anti-human IL-12(p40/p70) (e-Bioscience, Cat. #13-7129-85), Secondary HRP-conjugated Streptavidin (R&D Systems, Cat # DY998), 1×PBST Washing Buffer (PBS-Tween tablet) (VWR International, Cat #80058-558), ELISA Blocking Buffer (PBS with 1% BSA), ELISA Dilution Buffer (PBS with 1% BSA), 384 Well Flat-Bottom, MaxiSorp Black Immuno Plates (Thermo Scientific, Cat #12-565-346), 384 Well Flat-Bottom, White Tissue Culture Plates (Thermo Scientific, Cat #12-565-343), Super Signal ELISA Pico Chemiluminescent Substrate (Thermo Scientific, Cat #37070), Cell Titer Glo reagent (Promega, Cat # G7573), Positive control, IKK2VI inhibitor (Calbiochem, Cat #401483), AquaMax 4000 plate washer (Molecular Devices), Luminometer, Wallac Victor2 1420 Multilabel Counter. Method THP-1 Cells Stimulation:
On day 1, 50K/well THP-1 cells were seeded and primed with IFNγ (50 ng/mL) in 384-well plates for about 18 hours in RPMI media with 10% FBS. On day 2, the compound was serially diluted in DMSO from 5 mM in 3-fold dilutions, and then diluted 1:125 in RPMI media with 10% FBS. 50 μL/well 2× compound was added to 50 μL/well THP-1 cells (with IFNγ primed) in duplicate in 384 well tissue culture plates. The cells were pre-incubated with compound for 1 hour at 37° C., 5% CO2 before addition of 10 μL/well 11×LPS to give a final concentration of 1 ug/mL LPS. Day 3, after stimulation for 18 hours at 37° C., 5% CO2, the assay plate was centrifuged and 70 μL/well supernatant was harvested. IL-23p19 protein in 70 μL/well of supernatant was measured by sandwich ELISA, and 25 μl/well Cell Titer Glo reagent was added to the remaining cells to measure compound toxicity.
Human IL-23p19 Sandwich ELISA:
Maxisorp immuno ELISA plates were pre-coated with 25 μL/well of anti-IL-23p19 capture antibody (2.5 ug/mL) in PBS overnight at room temperature. After washing with 1×PBST, the plates were blocked using 100 μL/well of 1% BSA in PBS for 2 hours at room temperature. The plates were washed three times with 1×PBST and 70 μL/well supernatant were added. The plates were incubated at room temperature for 2 hours with shaking and washed three times with 1×PBST. 25 μL/well of biotin labeled anti-IL-12(p40/p70) detection antibody (100 ng/mL) in PBS with 1% BSA was added and the plates were incubated at room temperature for 2 hours with shaking. After washing three times with 1×PBST, 25 μL/well of streptavidin-HRP (1:200) in PBS with 1% BSA was added and the plates were incubated at room temperature for 20 minutes with shaking. The plates were washed three times with 1×PBST and 25 μL/well of Super Signal ELISA Pico Chemiluminescent Substrate were added. The plates were read with a luminometer, and the chemiluminescence values were entered into Athena (Rigel) for curve fitting, EC50 calculation, and database storage.

## Nc1ccc(-c2ccc(C(=O)Nc3cc4oc(N5CCOCC5)nc4cc3N3CCCCC3)o2)cn1 [Compound I-1, 5-(6-aminopyridin-3-yl)-N-(2-morpholino-5-(piperidin-1-yl)benzo[d]oxazol-6-yl)furan-2-carboxamide]
IL23-p19
  EC50: 4.73 µM
IL23p19
  EC50: 0.898 µM

## O=C(Nc1cc2oc(N3CCOCC3)nc2cc1N1CCCCC1)c1ccc(-c2cn[nH]c2)o1 [Compound I-3, N-(2-morpholino-5-(piperidin-1-yl)benzo[d]oxazol-6-yl)-5-(1H-pyrazol-4-yl)furan-2-carboxamide]
IL23-p19
  EC50: 0.0391 µM
IL23p19
  EC50: 0.0314 µM

## O=C(Nc1cc2oc(N3CCOCC3)nc2cc1N1CCCCC1)c1ccc(-c2cc[nH]n2)o1 [Compound I-4, N-(2-morpholino-5-(piperidin-1-yl)benzo[d]oxazol-6-yl)-5-(1H-pyrazol-3-yl)furan-2-carboxamide]
IL23-p19
  EC50: 12.1 µM
IL23p19
  EC50: 0.901 µM

## Nc1ccc(-c2ccc(C(=O)Nc3cc4sc(N5CCOCC5)nc4cc3N3CCCCC3)o2)cn1 [Compound I-5, 5-(6-aminopyridin-3-yl)-N-(2-morpholino-5-(piperidin-1-yl)benzo[d]thiazol-6-yl)furan-2-carboxamide]
IL23-p19
  EC50: 0.257 µM
IL23p19
  EC50: 0.432 µM

## O=C(Nc1cc2sc(N3CCOCC3)nc2cc1N1CCCCC1)c1ccc(-c2cnc3[nH]ccc3c2)o1 [Compound I-6, N-(2-morpholino-5-(piperidin-1-yl)benzo[d]thiazol-6-yl)-5-(1H-pyrrolo[2,3-b]pyridin-5-yl)furan-2-carboxamide]
IL23-p19
  EC50: 14 µM
IL23p19
  EC50: 40.5 µM

## O=C(Nc1cc2sc(N3CCOCC3)nc2cc1N1CCCCC1)c1ccc(-c2cn[nH]c2)o1 [Compound I-7, N-(2-morpholino-5-(piperidin-1-yl)benzo[d]thiazol-6-yl)-5-(1H-pyrazol-4-yl)furan-2-carboxamide]
IL23-p19
  EC50: 0.0136 µM
IL23p19
  EC50: 0.026 µM

## O=C(Nc1cc2sc(N3CCOCC3)nc2cc1N1CCCCC1)c1ccc(-c2cc[nH]n2)o1 [Compound I-8, N-(2-morpholino-5-(piperidin-1-yl)benzo[d]thiazol-6-yl)-5-(1H-pyrazol-3-yl)furan-2-carboxamide]
IL23p19
  EC50: 0.614 µM

## Cc1cc(-c2ccc(C(=O)Nc3cc4sc(N5CCOCC5)nc4cc3N3CCCCC3)o2)ccn1 [Compound I-9, 5-(2-methylpyridin-4-yl)-N-(2-morpholino-5-(piperidin-1-yl)benzo[d]thiazol-6-yl)furan-2-carboxamide]
IL23-p19
  EC50: 0.897 µM
IL23p19
  EC50: 52.1 µM

## Cc1cc(-c2ccc(C(=O)Nc3cc4oc(N5CCOCC5)nc4cc3N3CCCCC3)o2)ccn1 [Compound I-10, 5-(2-methylpyridin-4-yl)-N-(2-morpholino-5-(piperidin-1-yl)benzo[d]oxazol-6-yl)furan-2-carboxamide]
IL23-p19
  EC50: 2.99 µM
IL23p19
  EC50: 4.63 µM

## Nc1ccc(-c2nc(C(=O)Nc3cc4oc(N5CCOCC5)nc4cc3N3CCCCC3)cs2)cn1 [Compound I-11, 2-(6-aminopyridin-3-yl)-N-(2-morpholino-5-(piperidin-1-yl)benzo[d]oxazol-6-yl)thiazole-4-carboxamide]
IL23p19
  EC50: 228 µM

## O=C(Nc1cc2oc(N3CCOCC3)nc2cc1N1CCCCC1)c1csc(-c2cc[nH]n2)n1 [Compound I-13, N-(2-morpholino-5-(piperidin-1-yl)benzo[d]oxazol-6-yl)-2-(1H-pyrazol-3-yl)thiazole-4-carboxamide]
IL23p19
  EC50: 2.93 µM

## Cc1cc(-c2nc(C(=O)Nc3cc4oc(N5CCOCC5)nc4cc3N3CCC(F)CC3)cs2)ccn1 [Compound I-26, N-(5-(4-fluoropiperidin-1-yl)-2-morpholinobenzo[d]oxazol-6-yl)-2-(2-methylpyridin-4-yl)thiazole-4-carboxamide]
IL23p19
  EC50: 1.18 µM

## Cc1cc(-c2nc(C(=O)Nc3cc4oc(N5CCOCC5)nc4cc3N3CCC(F)(F)CC3)cs2)ccn1 [Compound I-30, N-(5-(4,4-difluoropiperidin-1-yl)-2-morpholinobenzo[d]oxazol-6-yl)-2-(2-methylpyridin-4-yl)thiazole-4-carboxamide]
IL23p19
  EC50: 43.5 µM

## Cc1cc(-c2ccc(C(=O)Nc3cc4oc(N5CCCCC5)nc4cc3N3CCCCC3)o2)ccn1 [Compound I-33, N-(2,5-di(piperidin-1-yl)benzo[d]oxazol-6-yl)-5-(2-methylpyridin-4-yl)furan-2-carboxamide]
IL23p19
  EC50: 4450 µM

## Nc1ccc(-c2nc(C(=O)Nc3cc4oc(N5CCCCC5)nc4cc3N3CCCCC3)cs2)cn1 [Compound I-34, 2-(6-aminopyridin-3-yl)-N-(2,5-di(piperidin-1-yl)benzo[d]oxazol-6-yl)thiazole-4-carboxamide]
IL23p19
  EC50: 8.32 µM

## O=C(Nc1cc2oc(N3CCCCC3)nc2cc1N1CCCCC1)c1csc(-c2cc[nH]n2)n1 [Compound I-36, N-(2,5-di(piperidin-1-yl)benzo[d]oxazol-6-yl)-2-(1H-pyrazol-3-yl)thiazole-4-carboxamide]
IL23p19
  EC50: 5.24 µM

## Cc1cc(-c2nc(C(=O)Nc3cc4oc(N5CCCCC5)nc4cc3N3CCCCC3)cs2)ccn1 [Compound I-37, N-(2,5-di(piperidin-1-yl)benzo[d]oxazol-6-yl)-2-(2-methylpyridin-4-yl)thiazole-4-carboxamide]
IL23p19
  EC50: 23.1 µM
